This is an account of results in patent US7893299B2, “Interleukin-1 and tumor necrosis factor-αmodulators; syntheses of such modulators and methods of using such modulators” (Nereus Pharmaceuticals, Inc., priority 2005, dated 2011).

The subject of series [1] is TNF-α and IL-1 production. The following applies: approximately 0.1 to approximately 1.0 microgram/ml for 48 hours; cited from earlier work.
Another series deals with IL-6 or IFN-γ production. The following applies: under the same conditions; cited from earlier work.
Series [2] relates to silicosis (chronic lung inflammation) and cirrhosis (liver inflammation and hepatic fibrosis). The following applies: mice with silicosis and cirrhosis; cited from earlier work.
The conditions of series [3]: rat, in vivo; cited from earlier work.
For series [4] the following is noted: mice, cited from earlier work; for toxicity (in words): mice and rats.
Another series relates to Panc1 and HS766T. Kind of series: TRAIL resistance of human pancreatic cancer cell lines. The class given is cell-based. The text has this:
(§1) Novel diterpene inhibitors of NFκB derived from acanthoic acid (NPI-1342 (Formula IIB-a1) and NPI-1387; compound 24 under scheme 4 above) show measurable effects in human pancreatic cancer cell lines in vitro. Seven of the nine cell lines were moderately sensitive to apoptosis induced by death receptor ligand Tumor Necrosis Factor (TNF) related apoptosis-inducing ligand (TRAIL). […] Specific silencing of NFkB/p65 expression mimicked these effects. Furthermore, combination treatment of Salinosporamide A and either NPI-1342 or NPI-1387 led to induction of apoptosis as measured by PI FACS analysis. Specifically, levels of DNA fragmentation increased from 4% to 50% in HS766T cells and from 4% to 52% in Panc1 cells. The inhibitory effects of NPI-1342, NPI-1387 on NFκB were evaluated by Electromobility Shift Assays and confirmed by confocal microscopy.

For the next series, the system named is HS766T cells. Kind of series: apoptosis by PI FACS analysis, HS766T. The class given is cell-based, human. The following applies: combination treatment with Salinosporamide A, increased from 4%.
Description: as §1
A general note: In flow cytometry, cells or beads pass a laser one at a time.

For the next series, the system named is Panc1 cells. Kind of series: apoptosis by PI FACS analysis, Panc1. The following applies: combination treatment with Salinosporamide A, increased from 4%. The class given is cell-based, human.
Description: as §1

Each structure is given as a SMILES string. Like-named read-outs stand apart in the source and are kept apart here.

As to `C=C[C@@]1(C)CC=C2[C@@H](CC[C@@H]3[C@](C)(C(=O)O)CCC[C@@]23C)C1` [Formula (I), acanthoic acid], the “inhibition of the TNF-α and IL-1 production” value in series [1] was “approximately 90%”. The “production of IL-6 or IFN-γ” value with IL-6 or IFN-γ production was “not affected”. Besides, the “histologic analysis: fibrotic granulomas and cirrotic liver cells” value in series [2] is “substantial reduction of fibrotic granulomas and a remarkable recovery of the cirrotic liver cells”. The “minimum lethal dose (MLD)” value in series [3] is 1000 mg/kg. Besides, the LD in series [4] (orally) was > 300 mg/100 g of body weight. Further, the “toxicity (in words)” value was “minimal toxicity” in series [4] and “very little toxicity” in series [4] (listed as Compound 1).

Regarding `C=C[C@@]1(C)CCC=C2[C@H]1CC[C@@H]1[C@](C)(C(=O)NC3CCCCC3)CCC[C@@]21C` (stereo in doubt) [Formula (IIB-A1), N-Cyclohexylamide Derivative of TTL], in the series on Panc1 and HS766T, the TRAIL resistance result is on record as “reversed TRAIL resistance”. Besides, the “levels of DNA fragmentation” value in the series with HS766T cells stood at 50%; in the series on Panc1 cells, 52%.
